Paper PMC5561075, “Identification and Characterization of a Bacterial Homolog of Chloride Intracellular Channel (CLIC) Protein” (Scientific Reports, 2017)

Target: Ec SspA (Escherichia coli, UniProt P0ACA3)
Assay: single-channel recording in planar lipid bilayers
Format: biochemical
Details: channel blocker, POPE:POPS:cholesterol 4:1:1, 500 mM KCl cis vs 50 mM KCl trans, 10 mM Tris-HCl pH 7.4, 1 mM DTT, room temperature

Sequence of Ec SspA (P0ACA3 whole entry): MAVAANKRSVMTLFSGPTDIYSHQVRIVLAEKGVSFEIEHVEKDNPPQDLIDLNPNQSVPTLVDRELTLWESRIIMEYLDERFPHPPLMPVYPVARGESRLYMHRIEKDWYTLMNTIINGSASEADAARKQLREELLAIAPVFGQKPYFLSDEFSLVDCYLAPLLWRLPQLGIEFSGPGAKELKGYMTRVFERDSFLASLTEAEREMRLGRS

CC1(C2CCCC2)Cc2cc(OCC(=O)O)c(Cl)c(Cl)c2C1=O (stereo not shown) [IAA-94]
open probability at 100 μM: 0.1 ± 0.05
